Results as given in article PMC9638991, “Designed High-Redox Potential Laccases Exhibit High Functional Diversity” (ACS Catalysis, 2022).

What was measured:
Experiment in all cases: colorimetric oxidation kinetics, purified enzyme
Format in all cases: biochemical
OB-1 = target: T1, OB-1 (basidiomycete PM1, UniProt Q12571); settings: optimal pH; O2 as co-substrate
T1 construct: S. cerevisiae expression, purified

Th3 [1] = target: T2, Th3 (Trametes hirsuta, UniProt B2L9C1, N227H/F478W, form not given); settings: optimal pH; O2 as co-substrate
T2 construct: gene Lac; secreted from S. cerevisiae (pJRoC30), purified fraction, about 56 kDa; wild type not expressible
T2 sequence (B2L9C1 entry or part of it N227H/F478W, form open): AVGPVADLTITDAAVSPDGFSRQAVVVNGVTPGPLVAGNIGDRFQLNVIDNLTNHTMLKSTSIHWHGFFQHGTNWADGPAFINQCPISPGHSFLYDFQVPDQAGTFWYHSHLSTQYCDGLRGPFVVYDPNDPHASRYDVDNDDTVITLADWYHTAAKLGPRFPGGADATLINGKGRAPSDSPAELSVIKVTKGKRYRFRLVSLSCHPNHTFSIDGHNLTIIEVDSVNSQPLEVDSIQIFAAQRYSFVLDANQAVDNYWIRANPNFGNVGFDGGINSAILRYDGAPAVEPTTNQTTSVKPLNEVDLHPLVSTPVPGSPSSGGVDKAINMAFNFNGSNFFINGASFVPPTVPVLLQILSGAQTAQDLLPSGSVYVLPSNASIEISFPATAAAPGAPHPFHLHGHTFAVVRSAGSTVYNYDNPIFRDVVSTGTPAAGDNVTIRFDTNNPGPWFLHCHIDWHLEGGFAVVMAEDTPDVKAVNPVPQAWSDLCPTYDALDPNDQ

Th3 [2] = target: T3, Th3 (Trametes hirsuta, UniProt B2L9C1, N227E/S448D, form not given); settings: optimal pH, O2 as co-substrate
T3 construct: gene Lac; secreted from S. cerevisiae (pJRoC30), purified fraction, about 56 kDa; wild type not expressible
T3 sequence (B2L9C1 entry or part of it N227E/S448D, form open): as the sequence (B2L9C1 entry or part of it N227H/F478W, form open) above, with H206E, S427D, W457F counted along it

Th3 [3] = target: T4, Th3 (Trametes hirsuta, UniProt B2L9C1); settings: optimal pH 4, O2 as co-substrate
T4 construct: gene Lac; secreted from S. cerevisiae (pJRoC30), purified fraction, about 56 kDa; wild type not expressible
T4 sequence (B2L9C1 entry or part of it): as the sequence (B2L9C1 entry or part of it N227H/F478W, form open) above, with H206N, W457F counted along it

Th3 [4] = target: T5, Th3 (Trametes hirsuta, UniProt B2L9C1, F286M/A414S, form not given); settings: optimal pH 5; O2 as co-substrate
T5 construct: gene Lac
T5 sequence (B2L9C1 entry or part of it F286M/A414S, form open): as the sequence (B2L9C1 entry or part of it N227H/F478W, form open) above, with H206N, F265M, A393S, W457F counted along it

[5] = text prints 'for Th3.7' inside a sentence on Th3.10 (apparent misprint, check Table S4)

T1 sequence (Q12571 entry or part of it): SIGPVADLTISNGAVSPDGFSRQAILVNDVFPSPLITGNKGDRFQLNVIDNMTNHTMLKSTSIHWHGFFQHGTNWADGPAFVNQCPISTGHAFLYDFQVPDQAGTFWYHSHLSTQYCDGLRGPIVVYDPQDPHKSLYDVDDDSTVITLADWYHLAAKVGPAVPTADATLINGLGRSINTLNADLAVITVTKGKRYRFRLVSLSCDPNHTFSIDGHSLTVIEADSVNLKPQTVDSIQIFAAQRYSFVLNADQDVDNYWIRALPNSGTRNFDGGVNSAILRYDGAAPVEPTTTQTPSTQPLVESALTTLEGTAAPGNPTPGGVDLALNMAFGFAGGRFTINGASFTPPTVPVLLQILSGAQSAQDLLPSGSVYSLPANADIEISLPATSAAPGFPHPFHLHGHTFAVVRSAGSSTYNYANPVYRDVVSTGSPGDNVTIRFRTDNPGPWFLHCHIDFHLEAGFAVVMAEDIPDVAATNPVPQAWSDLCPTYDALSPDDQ

COc1cccc(OC)c1O [DMP, 2,6-dimethoxyphenol]
Km (OB-1): 165 ± 2 µM | Km (Th3 [1]): 44 µM | Km (Th3 [2]; [5]): 17.1 µM | Km (Th3 [3]; purified fraction, values estimates): 1280 µM

COc1ccccc1O [GUA, guaiacol]
Km (Th3 [4]): 555 ± 85 µM | Km (OB-1): 1070 ± 30 µM | Km (Th3 [2]): 667 ± 36 µM | Km (Th3 [3]): 1790 ± 160 µM

COc1cc(/C=C/C(=O)O)cc(OC)c1O [SA, sinapic acid]
Km (OB-1): 81 ± 15 µM | Km (Th3 [1]): 185 µM | Km (Th3 [2]; [5]): 150 µM
